Results from patent US11780893B2, “Kv1.3 blockers” (Zealand Pharma A/S, priority 2019, dated 2023).
Bridge positions count the residues as written; N and C are the ends. Square brackets hold non-standard residues; d marks the D form. Peptide text beside a SMILES is read from it. Nle = CCCC[C@H](N)C(=O)O

Molecular target: T1, human Kv1.3 voltage-gated K+ channel (Homo sapiens, UniProt P22001)
T1 construct: host or cells: CHO-DUKX
Assay: cell-based
Conditions: inhibition of thallium flux, CHO-DUKX cells with human Kv1.3; read-out: IC50

T1 sequence (P22001 whole entry): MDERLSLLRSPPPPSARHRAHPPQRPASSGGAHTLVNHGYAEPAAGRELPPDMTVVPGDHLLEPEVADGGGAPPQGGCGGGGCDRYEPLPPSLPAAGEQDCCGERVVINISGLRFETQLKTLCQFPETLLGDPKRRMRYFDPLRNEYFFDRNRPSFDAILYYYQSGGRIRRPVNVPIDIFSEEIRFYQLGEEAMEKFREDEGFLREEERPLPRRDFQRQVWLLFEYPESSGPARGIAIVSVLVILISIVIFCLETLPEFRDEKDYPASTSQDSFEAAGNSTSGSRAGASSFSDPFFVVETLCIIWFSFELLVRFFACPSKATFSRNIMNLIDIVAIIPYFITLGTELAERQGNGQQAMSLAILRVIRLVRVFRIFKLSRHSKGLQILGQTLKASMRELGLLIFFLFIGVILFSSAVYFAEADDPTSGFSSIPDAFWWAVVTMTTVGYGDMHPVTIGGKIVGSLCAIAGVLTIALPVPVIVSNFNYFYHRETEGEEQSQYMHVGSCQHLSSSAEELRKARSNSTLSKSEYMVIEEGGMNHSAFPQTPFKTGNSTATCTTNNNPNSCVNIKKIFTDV

Structure (SMILES) | IC50 [nM]
CCCC[C@H](NC(=O)[C@@H]1CCCN1)C(=O)N[C@@H](CCC(=O)O)C(=O)N[C@@H](CCCC)C(=O)N[C@@H](CCCNC(=N)N)C(=O)N[C@H]1CSSC[C@@H]2NC(=O)[C@H](CCCCN)NC(=O)CNC(=O)[C@H](Cc3ccccc3)NC(=O)[C@H]([C@@H](C)CC)NC(=O)[C@H](CO)NC(=O)CNC(=O)[C@H]([C@@H](C)CC)NC(=O)[C@H](C)NC(=O)[C@H](C)NC(=O)[C@H](CC(C)C)NC(=O)[C@@H]3CSSC[C@@H](C(=O)N[C@@H](Cc4ccc(O)cc4)C(=O)N4CCC[C@H]4C(=O)N[C@@H](CCCNC(=N)N)C(=O)O)NC(=O)[C@H](CCCCN)NC(=O)[C@H](CSSC[C@H](NC(=O)[C@H](CCC(=O)O)NC(=O)[C@H](C(C)C)NC(=O)[C@H](CO)NC(=O)[C@H](CO)NC(=O)[C@H](CO)NC1=O)C(=O)N[C@@H](CCCCN)C(=O)N[C@@H](CCC(N)=O)C(=O)N[C@@H](CCCCN)C(=O)N3)NC(=O)[C@H](CCCCN)NC(=O)[C@H](CCCCN)NC(=O)[C@H](CC(N)=O)NC(=O)[C@H](CCCC)NC2=O [Compound 135] (H-P[Nle]E[Nle]RCSSSVECKQKCLAAIGSIFGKC[Nle]NKKCKCYPR-OH; disulfide 6-27, 12-32, 16-34) | 0.336
CCCC[C@H](NC(=O)[C@@H]1CCCN1)C(=O)N[C@@H](CCC(=O)O)C(=O)N[C@@H](CCCC)C(=O)N[C@@H](CCCNC(=N)N)C(=O)N[C@H]1CSSC[C@@H]2NC(=O)[C@H](CCCCN)NC(=O)CNC(=O)[C@H](Cc3ccccc3)NC(=O)[C@H]([C@@H](C)CC)NC(=O)[C@H](CO)NC(=O)CNC(=O)[C@H]([C@@H](C)CC)NC(=O)[C@H](C)NC(=O)[C@H](C)NC(=O)[C@H](CC(C)C)NC(=O)[C@@H]3CSSC[C@@H](C(=O)N[C@@H](Cc4ccc(O)cc4)C(=O)N4CCC[C@H]4C(=O)N[C@@H](CCCNC(=N)N)C(=O)O)NC(=O)[C@H](CCCCN)NC(=O)[C@H](CSSC[C@H](NC(=O)[C@H](CCC(=O)O)NC(=O)[C@H](C(C)C)NC(=O)[C@H](CO)NC(=O)[C@H](CC(C)C)NC(=O)[C@H](CO)NC1=O)C(=O)N[C@@H](CCCCN)C(=O)N[C@@H](CCC(N)=O)C(=O)N[C@@H](CCCCN)C(=O)N3)NC(=O)[C@H](CCCCN)NC(=O)[C@H](CCCCN)NC(=O)[C@H](CC(N)=O)NC(=O)[C@H](CCCC)NC2=O [Compound 136] (H-P[Nle]E[Nle]RCSLSVECKQKCLAAIGSIFGKC[Nle]NKKCKCYPR-OH; disulfide 6-27, 12-32, 16-34) | 6.24
CCCC[C@H](NC(=O)[C@@H]1CCCN1)C(=O)N[C@@H](CCC(=O)O)C(=O)N[C@@H](CCCC)C(=O)N[C@@H](CCCNC(=N)N)C(=O)N[C@H]1CSSC[C@@H]2NC(=O)[C@H](CCCCN)NC(=O)CNC(=O)[C@H](Cc3ccccc3)NC(=O)[C@H]([C@@H](C)CC)NC(=O)[C@H](CO)NC(=O)CNC(=O)[C@H]([C@@H](C)CC)NC(=O)[C@H](C)NC(=O)[C@H](C)NC(=O)[C@H](CC(C)C)NC(=O)[C@@H]3CSSC[C@@H](C(=O)N[C@@H](Cc4ccc(O)cc4)C(=O)N4CCC[C@H]4C(=O)N[C@@H](CCCNC(=N)N)C(=O)O)NC(=O)[C@H](CCCCN)NC(=O)[C@H](CSSC[C@H](NC(=O)[C@H](CCC(=O)O)NC(=O)[C@H](C(C)C)NC(=O)[C@@H]4CCCN4C(=O)[C@H](C)NC(=O)[C@H](CO)NC1=O)C(=O)N[C@@H](CCCCN)C(=O)N[C@@H](CCC(N)=O)C(=O)N[C@@H](CCCCN)C(=O)N3)NC(=O)[C@H](CCCCN)NC(=O)[C@H](CCCCN)NC(=O)[C@H](CC(N)=O)NC(=O)[C@H](CCCC)NC2=O [Compound 137] (H-P[Nle]E[Nle]RCSAPVECKQKCLAAIGSIFGKC[Nle]NKKCKCYPR-OH; disulfide 6-27, 12-32, 16-34) | 0.333
CCCC[C@H](NC(=O)[C@@H]1CCCN1)C(=O)N[C@@H](CCC(=O)O)C(=O)N[C@@H](CCCC)C(=O)N[C@@H](CCCNC(=N)N)C(=O)N[C@H]1CSSC[C@@H]2NC(=O)[C@H](CCCCN)NC(=O)CNC(=O)[C@H](Cc3ccccc3)NC(=O)[C@H]([C@@H](C)CC)NC(=O)[C@H](CO)NC(=O)CNC(=O)[C@H]([C@@H](C)CC)NC(=O)[C@H](C)NC(=O)[C@H](C)NC(=O)[C@H](CC(C)C)NC(=O)[C@@H]3CSSC[C@@H](C(=O)N[C@@H](Cc4ccc(O)cc4)C(=O)N4CCC[C@H]4C(=O)N[C@@H](CCCNC(=N)N)C(=O)O)NC(=O)[C@H](CCCCN)NC(=O)[C@H](CSSC[C@H](NC(=O)[C@H](CCC(=O)O)NC(=O)[C@@H]4CCCN4C(=O)[C@H](CO)NC(=O)[C@H](C)NC(=O)[C@H](CO)NC1=O)C(=O)N[C@@H](CCCCN)C(=O)N[C@@H](CCC(N)=O)C(=O)N[C@@H](CCCCN)C(=O)N3)NC(=O)[C@H](CCCCN)NC(=O)[C@H](CCCCN)NC(=O)[C@H](CC(N)=O)NC(=O)[C@H](CCCC)NC2=O [Compound 138] (H-P[Nle]E[Nle]RCSASPECKQKCLAAIGSIFGKC[Nle]NKKCKCYPR-OH; disulfide 6-27, 12-32, 16-34) | 0.228
CCCC[C@H](NC(=O)[C@@H]1CCCN1)C(=O)N[C@@H](CCC(=O)O)C(=O)N[C@@H](CCCC)C(=O)N[C@@H](CCCNC(=N)N)C(=O)N[C@H]1CSSC[C@@H]2NC(=O)[C@H](CCCCN)NC(=O)CNC(=O)[C@H](Cc3ccccc3)NC(=O)[C@H]([C@@H](C)CC)NC(=O)[C@H](CO)NC(=O)CNC(=O)[C@H]([C@@H](C)CC)NC(=O)[C@H](C)NC(=O)[C@H](C)NC(=O)[C@H](CC(C)C)NC(=O)[C@@H]3CSSC[C@@H](C(=O)N[C@@H](Cc4ccc(O)cc4)C(=O)N4CCC[C@H]4C(=O)N[C@@H](CCCNC(=N)N)C(=O)O)NC(=O)[C@H](CCCCN)NC(=O)[C@H](CSSC[C@H](NC(=O)[C@H](CCC(=O)O)NC(=O)[C@H](CCC(N)=O)NC(=O)[C@H](CO)NC(=O)[C@H](C)NC(=O)[C@H](CO)NC1=O)C(=O)N[C@@H](CCCCN)C(=O)N[C@@H](CCC(N)=O)C(=O)N[C@@H](CCCCN)C(=O)N3)NC(=O)[C@H](CCCCN)NC(=O)[C@H](CCCCN)NC(=O)[C@H](CC(N)=O)NC(=O)[C@H](CCCC)NC2=O [Compound 139] (H-P[Nle]E[Nle]RCSASQECKQKCLAAIGSIFGKC[Nle]NKKCKCYPR-OH; disulfide 6-27, 12-32, 16-34) | 0.453
CCCC[C@H](NC(=O)[C@@H]1CCCN1)C(=O)N[C@@H](CCC(=O)O)C(=O)N[C@@H](CCCC)C(=O)N[C@@H](CCCNC(=N)N)C(=O)N[C@H]1CSSC[C@@H]2NC(=O)[C@H](CCCCN)NC(=O)CNC(=O)[C@H](Cc3ccccc3)NC(=O)[C@H]([C@@H](C)CC)NC(=O)[C@H](CO)NC(=O)CNC(=O)[C@H]([C@@H](C)CC)NC(=O)[C@H](C)NC(=O)[C@H](C)NC(=O)[C@H](CC(C)C)NC(=O)[C@@H]3CSSC[C@@H](C(=O)N[C@@H](Cc4ccc(O)cc4)C(=O)N4CCC[C@H]4C(=O)N[C@@H](CCCNC(=N)N)C(=O)O)NC(=O)[C@H](CCCCN)NC(=O)[C@H](CSSC[C@H](NC(=O)[C@H](CCC(=O)O)NC(=O)[C@H](C(C)C)NC(=O)[C@H](CO)NC(=O)[C@H](C)NC(=O)[C@H](CO)NC1=O)C(=O)N[C@@H](CC(C)C)C(=O)N[C@@H](CCC(N)=O)C(=O)N[C@@H](CCCCN)C(=O)N3)NC(=O)[C@H](CCCCN)NC(=O)[C@H](CCCCN)NC(=O)[C@H](CC(N)=O)NC(=O)[C@H](CCCC)NC2=O [Compound 140] (H-P[Nle]E[Nle]RCSASVECLQKCLAAIGSIFGKC[Nle]NKKCKCYPR-OH; disulfide 6-27, 12-32, 16-34) | 3.57
CCCC[C@H](NC(=O)[C@@H]1CCCN1)C(=O)N[C@@H](CCC(=O)O)C(=O)N[C@@H](CCCC)C(=O)N[C@@H](CCCNC(=N)N)C(=O)N[C@H]1CSSC[C@@H]2NC(=O)[C@H](CCCCN)NC(=O)CNC(=O)[C@H](Cc3ccccc3)NC(=O)[C@H]([C@@H](C)CC)NC(=O)[C@H](CO)NC(=O)CNC(=O)[C@H]([C@@H](C)CC)NC(=O)[C@H](C)NC(=O)[C@H](C)NC(=O)[C@H](CC(C)C)NC(=O)[C@@H]3CSSC[C@@H](C(=O)N[C@@H](Cc4ccc(O)cc4)C(=O)N4CCC[C@H]4C(=O)N[C@@H](CCCNC(=N)N)C(=O)O)NC(=O)[C@H](CCCCN)NC(=O)[C@H](CSSC[C@H](NC(=O)[C@H](CCC(=O)O)NC(=O)[C@H](C(C)C)NC(=O)[C@H](CO)NC(=O)[C@H](C)NC(=O)[C@H](CO)NC1=O)C(=O)N[C@@H](CCCCN)C(=O)N[C@@H](CCC(N)=O)C(=O)N1CCC[C@H]1C(=O)N3)NC(=O)[C@H](CCCCN)NC(=O)[C@H](CCCCN)NC(=O)[C@H](CC(N)=O)NC(=O)[C@H](CCCC)NC2=O [Compound 141] (H-P[Nle]E[Nle]RCSASVECKQPCLAAIGSIFGKC[Nle]NKKCKCYPR-OH; disulfide 6-27, 12-32, 16-34) | 1.07
CCCC[C@H](NC(=O)[C@@H]1CCCN1)C(=O)N[C@@H](CCC(=O)O)C(=O)N[C@@H](CCCC)C(=O)N[C@@H](CCCNC(=N)N)C(=O)N[C@H]1CSSC[C@@H]2NC(=O)[C@H](CCCCN)NC(=O)CNC(=O)[C@H](Cc3ccccc3)NC(=O)[C@H]([C@@H](C)CC)NC(=O)[C@H](CO)NC(=O)CNC(=O)[C@H]([C@@H](C)CC)NC(=O)[C@H](C)NC(=O)[C@H](C)NC(=O)[C@H](CC(C)C)NC(=O)[C@@H]3CSSC[C@@H](C(=O)N[C@@H](Cc4ccc(O)cc4)C(=O)N4CCC[C@H]4C(=O)N[C@@H](CCCNC(=N)N)C(=O)O)NC(=O)[C@H](CCCCN)NC(=O)[C@H](CSSC[C@H](NC(=O)[C@H](CCC(=O)O)NC(=O)[C@H](C(C)C)NC(=O)[C@H](CO)NC(=O)[C@H](C)NC(=O)[C@H](CCC(=O)O)NC1=O)C(=O)N[C@@H](CCCCN)C(=O)N[C@@H](CCC(N)=O)C(=O)N[C@@H](CCCCN)C(=O)N3)NC(=O)[C@H](CCCCN)NC(=O)[C@H](CCCCN)NC(=O)[C@H](CC(N)=O)NC(=O)[C@H](CCCC)NC2=O [Compound 142] (H-P[Nle]E[Nle]RCEASVECKQKCLAAIGSIFGKC[Nle]NKKCKCYPR-OH; disulfide 6-27, 12-32, 16-34) | 1.5
